Source: patent US7531545B2, “2-amino-3,4-dihydro-pyrido[3,4-d]pyrimidine derivatives useful as inhibitors of β-secretase (BACE)” (Janssen Pharmaceutica, N.V., priority 2005, dated 2009)
Where “and” joins values, the source holds several entries; their conditions need not be identical. Equal entries are not always repeated. Structures can show the parent of a compound that is named as a salt.

Key:
[1] = biological target: T1, β-secretase (BACE) (Homo sapiens, UniProt P56817); assay: BACE FS1 Assay (% Inhibition and Ki); type: biochemical; conditions: FS1 substrate; for inhibition at 0.3 µM: read-out: % Inhibition (FS) @ 0.3 μM; for inhibition at 1 µM: read-out: % Inhibition (FS) @ 1 μM; for inhibition at 3 µM: read-out: % Inhibition (FS) @ 3 μM
T1 construct: purchased Panvera
T1 sequence (P56817 46-501): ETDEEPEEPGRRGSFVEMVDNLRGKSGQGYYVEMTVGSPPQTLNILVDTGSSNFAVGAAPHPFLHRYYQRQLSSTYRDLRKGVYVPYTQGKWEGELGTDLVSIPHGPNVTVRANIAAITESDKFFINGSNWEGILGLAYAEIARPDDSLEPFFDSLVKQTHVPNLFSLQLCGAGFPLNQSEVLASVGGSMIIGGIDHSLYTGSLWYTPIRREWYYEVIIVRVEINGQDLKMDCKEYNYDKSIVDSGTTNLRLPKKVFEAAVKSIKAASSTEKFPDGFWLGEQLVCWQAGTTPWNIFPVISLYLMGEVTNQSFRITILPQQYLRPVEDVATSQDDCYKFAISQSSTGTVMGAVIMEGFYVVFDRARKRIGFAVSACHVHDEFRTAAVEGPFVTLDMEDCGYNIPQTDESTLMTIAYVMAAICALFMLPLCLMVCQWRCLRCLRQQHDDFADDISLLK
Experimental: BACE FS1 Assay (% Inhibition and Ki)
The following reagents were used in this assay: sodium acetate, PEG8000 (Sigma), DMSO, HEPES, FS1 substrate [R(AedensE)[…]-(DabcylK)R], β-secretase (BACE) (Panvera), and 96-well plate (HE microplate, Molecular Devices).
The following assay buffers were prepared and used in this assay: (1) enzyme assay buffer (0.05 M sodium acetate, pH5, 0.1% PEG8000 (w/v)), (2) substrate assay buffer (0.05 M sodium acetate, pH5), and (3) compound vehicle (30% DMSO in 50 mM HEPES, pH 7.4).
The FS1-substrate stock solution was prepared in DMSO as a 10 mg/mL solution. The FS1-substrate working solution was prepared by diluting the 10 mg/mL stock solution with substrate assay buffer to a final concentration of 300 μg/mL. The β-secretase (BACE) working solution was prepared by diluting a 0.83 mg/mL BACE stock solution with enzyme assay buffer to a final concentration of 4 μg/mL.
Test compounds were dissolved in DMSO to 10 mM. Compounds were further diluted in vehicle to various concentrations in the range of 405 μM to 4.05 μM (13.5× final compound concentration in screening plate).
The screening procedure for this assay was as follows: 15 μL of BACE working solution was pipetted into each well of a 96-well plate. To each well was then pipetted 2 μL of test compound at the selected concentration. Test compound and BACE were then mixed with a pipettor and incubated for 20 min at room temperature. To each well was then added 10 μL of the FS1 substrate working solution. The plates were then incubated for 1 hour at room temperature. The fluorescence for each well was then measured on an LJL analyst (Ex 360 nm/Em 530 nm).
The procedure for the blank was as follows. 15 μL of assay buffer was pipetted into each well to be used as a blank control. To each well was then added 2 μL of vehicle and […] of FS1-substrate working solution. The plates were then incubated for 1 hour at room temperature. The fluorescence was measured on an LJL analyst (Ex 360 nm/Em 530 nm).
The procedure for the positive control was as follows: 15 μL of BACE working solution was pipetted into each well to be used as a positive control. To each well was then pipetted 2 μL of vehicle. Vehicle and BACE were then mixed with a pipettor and incubated for 20 min at room temperature. To each well was then added 10 μL of the FS1 substrate working solution. The plates were then incubated for 1 hour at room temperature. The fluorescence (F1) was then measured on an LJL analyst (Ex 360 nm/Em 530 nm).
For test compounds, % inhibition was determined at each concentration as follows:
% Inhibition values of less than 30% were indistinguishable from control are listed as ≦30% in Table 18, below.
For test compounds, measured at multiple concentrations, the measured T0 and T60 values were used to calculate an IC50 value using Graphpad Software (or PIR). Ki inhibition was determined as follows: For each compound concentration and positive control, rate of cleavage of substrate (Vi, where i=compound concentration in μM) was determined as Δ Fluorescence/Δ time (min). Cleavage rates (Vi) were plotted as a function of inhibitor concentration in μM [I]. […]

[2] = biological target: human BACE-1 (Homo sapiens, UniProt P56817); assay: CEREP BACE Inhibition Assay; type: biochemical; conditions: recombinant enzyme; for inhibition at 1 µM: read-out: % Inhibition @ 1.0 μM; for IC50: read-out: IC50
human BACE-1, sequence (P56817 46-501): as above
Method in brief: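 Recombinant human BACE-1 (0.25 μg) was assayed in 0.09 M sodium acetate pH 4.5, with activity followed fluorimetrically as formation of Mca-S-E-V-N-L[…] from peptide substrate. Compound autofluorescence was checked at the detection wavelengths. Basal signal was taken from wells without substrate.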

[3] = percent inhibition of the control activity

Structure (SMILES) | % Inhibition (FS) @ 0.3 μM ([1]; 0.3 μM test compound, 0.3 µM) [%] | inhibition at 0.3 µM ([1]; 0.3 μM test compound) [%] | % Inhibition (FS) @ 1 μM ([1]; 1 μM test compound, 1 µM) [%] | inhibition at 1 µM ([1]; 1 μM test compound) [%] | % Inhibition (FS) @ 3 μM ([1]; 3 μM test compound, 3 µM) [%] | inhibition at 3 µM ([1]; 3 μM test compound) [%] | Ki [1] | inhibition at 1 µM [2, 3] [%] | IC50 [2] [nM] | inhibition at 0.3 µM ([2]; 0.3 μM, percent inhibition of the control activity) [%]
CC(C)C(CCC(=O)N(C)C1CCC(C(=O)O)CC1)N1Cc2cc(Oc3ccccc3)ncc2N=C1N (centres unmarked) [Compound 8] | 121 | 106 | 115 | 129 | 130 | 138 | 27 nM and 16 nM | – | – | –
CC(C)[C@H](CCC(=O)N(C)CCC(=O)O)N1Cc2cc(Oc3ccccc3)ncc2N=C1N [Compound 16] | – | 12 | – | 51 | – | 80 | 1090 nM | – | – | –
CN(C(=O)CC[C@@H](C1CCCCC1)N1Cc2cc(-c3ccccc3F)ncc2N=C1N)C1CCCCC1 [Compound 4] | – | 113 | – | 127 | – | 132 | 35 nM | – | – | –
CN(C(=O)CC[C@@H](C1CCOCC1)N1Cc2cc(Oc3ccccc3)ncc2N=C1N)[C@H]1CC[C@@H](C(=O)O)CC1 [Compound 33] | – | 114 | – | 112 | – | 113 | 5 nM | – | – | –
CC(C)[C@H](CCC(=O)N(CCCO)C1CCCCC1)N1Cc2cc(Oc3ccccc3)ncc2N=C1N [Compound 19] | – | 88 | – | 103 | – | 104 | 55 nM | – | – | –
CN(CCCCC(=O)O)C(=O)CC[C@@H](C1CCCCC1)N1Cc2cc(Oc3ccccc3)ncc2N=C1N [Compound 44] | – | 61 | – | 88 | – | 105 | 148 nM | – | – | –
CC(C)[C@H](CCC(=O)N(C)C1CCC(c2nnn[nH]2)CC1)N1Cc2cc(Oc3ccccc3)ncc2N=C1N (stereo partly drawn) [Compound 13, 4-(S)-(2-Amino-6-phenoxy-4H-pyrido[3,4-d]pyrimidin-3-yl)-5-methyl-hexanoic acid methyl-[4-(1H-tetrazol-5-yl)-cyclohexyl]-amide] | – | 30 | – | 63 | – | 87 | 517 nM | – | – | –
CCOC(=O)C1CCC(N(C)C(=O)CCC(C2CCOCC2)N2Cc3cc(Oc4ccccc4)ncc3N=C2N)CC1 (centres unmarked) [Compound 27] | – | 16 | – | 96 | – | 110 | 193 nM | – | – | –
CC(C)C(CCC(=O)N(CCO)C1CCC(C(=O)O)CC1)N1Cc2cc(Oc3ccccc3)ncc2N=C1N (centres unmarked) [Compound 20] | – | 97 | – | 102 | – | 104 | 13 nM | – | – | –
COCCC(CCC(=O)N(C)C1CCCCC1)N1Cc2cc(Oc3ccccc3)ncc2N=C1N (centres unmarked) [Compound 23] | – | 32 | – | 86 | – | 103 | 151 nM | – | – | –
CC(C)OCCC(CCC(=O)N(C)C1CCCCC1)N1Cc2cc(Oc3ccccc3)ncc2N=C1N (centres unmarked) [Compound 24] | – | 40 | – | 71 | – | 103 | 234 nM | – | – | –
CC(C)[C@H](CCC(=O)N[C@@H](COCc1ccccc1)C(=O)O)N1Cc2cc(Oc3ccccc3)ncc2N=C1N [Compound 47, 2-[4-(2-Amino-6-phenoxy-4H-pyrido[3,4-d]pyrimidin-3-yl)-5-methyl-(S)-hexanoylamino]-3-(S)-benzyloxy-propionic acid] | – | 109 | – | 109 | – | 115 | 72 nM | – | – | –
COC(=O)[C@@H](CO)NC(=O)CC[C@@H](C(C)C)N1Cc2cc(Oc3ccccc3)ncc2N=C1N [Compound 28] | – | 116 | – | 124 | – | 128 | 17 nM | – | – | –
NC1=Nc2cnc(Oc3ccccc3)cc2CN1CCNC(=O)C1CCCCC1 [Compound 1] | – | 75 | – | 102 | – | 110 | 166 nM | – | – | –
CC(C)(C)OC(=O)NCCN1Cc2cc(Oc3ccccc3)ncc2N=C1N [Compound 2] | – | 70 | – | 102 | – | 124 | 91 nM | – | – | –
NC1=Nc2cnc(Oc3ccccc3)cc2CN1[C@@H](CCC(=O)N(CCO)[C@H]1CC[C@@H](C(=O)O)CC1)C1CCCCC1 [Compound 37] | – | 112 | – | 111 | – | 114 | 12 nM | – | – | –
CC(C)[C@H](CCC(=O)N[C@H](COCc1ccccc1)C(=O)OCc1ccccc1)N1Cc2cc(Oc3ccccc3)ncc2N=C1N [Compound 48] | – | 73 | – | 107 | – | 116 | 36 nM | – | – | –
NC1=Nc2cnc(Oc3ccccc3)cc2CN1[C@@H](CCC(=O)N(CCOCc1ccccc1)[C@H]1CC[C@@H](C(=O)O)CC1)C1CCOCC1 [Compound 39, 4-[[4-(2-Amino-6-phenoxy-4H-pyrido[3,4-d]pyrimidin-3-yl)-4-(S)-(tetrahydro-pyran-4-yl)-butyryl]-(2-benzyloxy-ethyl)-amino]-cyclohexanecarboxylic acid] | – | 112 | – | 110 | – | 115 | 13 nM | – | – | –
CC(C)[C@H](CCC(=O)N[C@H](CO)C(=O)O)N1Cc2cc(Oc3ccccc3)ncc2N=C1N [Compound 30] | – | 91 | – | 106 | – | 117 | 97 nM | – | – | –
COC(=O)[C@H](COCc1ccccc1)N(C)C(=O)CC[C@@H](C(C)C)N1Cc2cc(Oc3ccccc3)ncc2N=C1N [Compound 51, 2-{[4-(2-Amino-6-phenoxy-4H-pyrido[3,4-d]pyrimidin-3-yl)-5-methyl-(S)-hexanoyl]-methyl-amino}-3-(S)-benzyloxy-propionic acid methyl ester trifluoroacetate salt] | – | 114 | – | 118 | – | 118 | 14 nM | – | – | –
CC(C)[C@H](CCC(=O)N(CCO)C(C)C)N1Cc2cc(Oc3ccccc3)ncc2N=C1N [Compound 21] | – | 51 | – | 83 | – | 97 | 74 nM | – | – | –
CN(C(=O)CC[C@@H](C1CCCCC1)N1Cc2cc(Oc3ccccc3)ncc2N=C1N)C1CCCCC1 [Compound 5] | – | 125 | – | 131 | – | 138 | 25 nM | – | – | –
CC(C)(C)OC(=O)CC[C@@H](C1CCCCC1)N1Cc2cc(Oc3ccccc3)ncc2N=C1N [Compound 75] | – | – | – | – | – | – | – | 90 | 240 | –
C[C@H](CO)N(C)CCC[C@@H](C1CCCCC1)N1Cc2cc(Oc3ccccc3)ncc2N=C1N [Compound 184] | – | – | – | – | – | – | – | 45 | 2300 | –
CC(C)(C)c1cn(CC[C@@H](C2CCCCC2)N2Cc3cc(Oc4ccccc4)ncc3N=C2N)nn1 [Compound 199] | – | – | – | – | – | – | – | 100 | 86 | –
CC(C)(C)N(CCO)C(=O)CC[C@@H](C1CCCCC1)N1Cc2cc(Oc3ccccc3)ncc2N=C1N [Compound 115] | – | – | – | – | – | – | – | 80 | 230 | –
COC(=O)[C@H](COC(C)(C)C)N(C)C(=O)CC[C@@H](C1CCCCC1)N1Cc2cc(Oc3ccccc3)ncc2N=C1N [Compound 65] | – | – | – | – | – | – | – | – | 110 | 91
